Active and inactive are the calls of the source.
Legend:
[1] = SAR analysis of small molecule activators of Apaf-1 using a LZ-Caspase-9/Caspase-3 Fluorescent Selectivity assay - Set 2.; type: functional; conditions: read-out: EC50_Mean
[2] = biological target: T1, Apoptotic protease-activating factor 1 (Homo sapiens, UniProt O14727); assay: SAR analysis of small molecule Activators of Apaf-1 in a Fluorescent assay - set 2.; type: functional; conditions: read-out: EC50_Mean
T1 sequence (O14727 whole entry): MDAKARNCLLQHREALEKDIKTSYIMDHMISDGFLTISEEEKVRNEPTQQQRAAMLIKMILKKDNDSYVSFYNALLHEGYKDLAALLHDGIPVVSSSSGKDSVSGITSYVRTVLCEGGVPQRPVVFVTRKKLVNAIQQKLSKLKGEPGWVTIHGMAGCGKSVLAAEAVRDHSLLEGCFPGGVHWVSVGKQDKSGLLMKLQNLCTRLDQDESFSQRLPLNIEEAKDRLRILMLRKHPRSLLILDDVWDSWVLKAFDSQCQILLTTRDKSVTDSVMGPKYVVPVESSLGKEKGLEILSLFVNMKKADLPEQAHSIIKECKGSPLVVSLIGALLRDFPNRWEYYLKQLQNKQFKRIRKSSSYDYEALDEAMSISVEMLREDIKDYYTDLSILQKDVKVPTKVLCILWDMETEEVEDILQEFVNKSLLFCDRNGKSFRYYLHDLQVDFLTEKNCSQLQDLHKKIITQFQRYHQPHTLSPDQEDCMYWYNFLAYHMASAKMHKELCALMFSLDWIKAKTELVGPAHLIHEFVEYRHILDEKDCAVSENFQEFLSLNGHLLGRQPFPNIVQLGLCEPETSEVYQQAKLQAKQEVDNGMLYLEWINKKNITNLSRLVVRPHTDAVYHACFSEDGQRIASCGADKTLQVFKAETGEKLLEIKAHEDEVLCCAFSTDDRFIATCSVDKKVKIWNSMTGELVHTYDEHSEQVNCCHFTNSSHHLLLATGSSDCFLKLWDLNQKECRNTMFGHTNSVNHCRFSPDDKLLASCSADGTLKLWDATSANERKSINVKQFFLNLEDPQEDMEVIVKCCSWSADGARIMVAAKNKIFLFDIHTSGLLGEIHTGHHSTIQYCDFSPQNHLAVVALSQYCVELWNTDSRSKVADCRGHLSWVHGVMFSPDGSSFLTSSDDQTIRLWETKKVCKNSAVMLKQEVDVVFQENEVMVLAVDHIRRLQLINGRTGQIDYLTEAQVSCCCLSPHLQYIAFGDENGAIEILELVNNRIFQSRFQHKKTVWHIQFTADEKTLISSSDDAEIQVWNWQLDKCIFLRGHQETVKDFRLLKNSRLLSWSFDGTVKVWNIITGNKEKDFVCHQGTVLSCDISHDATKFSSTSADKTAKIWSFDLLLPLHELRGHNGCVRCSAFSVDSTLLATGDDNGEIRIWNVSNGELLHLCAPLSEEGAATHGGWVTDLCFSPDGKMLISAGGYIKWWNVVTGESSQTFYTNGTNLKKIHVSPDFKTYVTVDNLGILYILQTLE

- EC50 [1]: > 100 µM (inactive)
- EC50 [2]: > 100 µM (inactive)
Structure (SMILES): CC(Cn1cccn1)C(=O)O (configuration not stated)

From ChEMBL document CHEMBL1201862, “PubChem BioAssay data set” (2004)
